The test system of the assay is Caco-2. Kind of assay: cells. The following applies: Homo sapiens, Caco-2, read-out: INH.

Description: Inhibition of cell invasion of human Caco2 cells at 100 nM by cell invasion assay

For the molecule `CN(C)c1cccc2c(S(=O)(=O)N3CCCN(C4(c5ccc(Oc6ccccc6)cc5)C(=O)NC(=O)NC4=O)CC3)cccc12`, the inhibition at 0.1 µM came to 20.1%.
